Experiments:
[1] = target: T1, PBP3 from Escherichia coli (Escherichia coli, UniProt P0AD68); assay: Competition binding assay using Bodipy-FL boronic acid probe (Example 95); details: PBP3 3 μM, read-out: E. coli K12 PBP3 Potency
T1 construct: made in house
Experimental: PBP3 from Escherichia coli was cloned and purified as described previously (King, D. T, et al., ACS Infectious Diseases 2015, 1, 175-184). To establish assay conditions for competition binding, an enzyme titration/saturation binding experiment was performed. […] FP was measured immediately upon addition of PBP3 (Ex, Em), using a Cytation3 (BioTek) microplate reader and measured continuously for 60 minutes. […] The competition binding assay was validated using the beta-lactam ampicillin, with Bocillin-FL at a final concentration of 0.1 μM, PBP3 at a final concentration of 1.5 μM and concentrations of ampicillin from 0-1000 μM. […] Binding assays for boronic acid PBP inhibitors were performed in an identical fashion. Representative results are shown in Table 3, where A represents a potency of >500 μM, B represents a potency between 30 μM and 500 μM inclusive, and C represents a potency of <30 μM. NT=Not Tested.
The method described in Example II was adapted to use a Bodipy-labeled boronic acid PBP inhibitor (Example 13 or Example 95) to assess PBP3 potency of boronic acid PBP inhibitors. The method is identical to that described in Example II for the Bocillin-FL competition binding assay, with the following exceptions: PBP3 from Escherichia coli is used at a final concentration of 3 μM. […]

[2] = target: T2, PBP1a from Escherichia coli (Escherichia coli, UniProt P02918); assay: Radioligand competition binding assay with 14C-labeled boronic acid probe (Example 96); details: 14C-labeled probe 96 at 20 μM, PBP 0.1 μM; read-out: E. coli K12 PBP1a EC50
T2 construct: made in house
Method in brief: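 Purified PBP (0.1 μM) in 20 mM Tris pH 7.5, 500 mM NaCl, 0.1% Triton X-100 preincubated 60 min with inhibitor, then 60 min with 20 μM 14C-boronic acid probe. Bound probe recovered by spin desalting and counted by scintillation; EC50 is the concentration halving probe binding.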

T2 sequence (P02918 whole entry): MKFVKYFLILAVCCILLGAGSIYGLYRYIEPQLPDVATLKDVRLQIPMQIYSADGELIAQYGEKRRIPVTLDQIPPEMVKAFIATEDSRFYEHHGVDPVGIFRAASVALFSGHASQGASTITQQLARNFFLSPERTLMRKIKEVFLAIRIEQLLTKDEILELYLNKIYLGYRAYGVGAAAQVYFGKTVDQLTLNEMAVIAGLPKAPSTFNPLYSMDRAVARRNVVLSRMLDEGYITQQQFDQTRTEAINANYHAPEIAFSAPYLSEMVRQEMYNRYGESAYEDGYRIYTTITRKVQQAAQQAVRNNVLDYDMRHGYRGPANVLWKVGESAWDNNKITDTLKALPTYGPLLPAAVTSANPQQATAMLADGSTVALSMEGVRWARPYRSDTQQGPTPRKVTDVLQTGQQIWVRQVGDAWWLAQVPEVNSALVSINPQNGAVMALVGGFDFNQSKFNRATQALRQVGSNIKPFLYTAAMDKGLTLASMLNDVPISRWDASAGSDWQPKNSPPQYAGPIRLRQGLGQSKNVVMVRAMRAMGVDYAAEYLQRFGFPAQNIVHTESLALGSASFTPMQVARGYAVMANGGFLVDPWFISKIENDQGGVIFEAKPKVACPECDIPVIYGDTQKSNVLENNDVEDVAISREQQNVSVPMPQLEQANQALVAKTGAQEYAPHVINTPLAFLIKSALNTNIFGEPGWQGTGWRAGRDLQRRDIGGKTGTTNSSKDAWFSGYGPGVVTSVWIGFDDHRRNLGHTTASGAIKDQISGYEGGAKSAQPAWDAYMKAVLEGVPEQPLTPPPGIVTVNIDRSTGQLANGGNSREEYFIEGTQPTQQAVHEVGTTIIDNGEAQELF
T1 sequence (P0AD68 1-577): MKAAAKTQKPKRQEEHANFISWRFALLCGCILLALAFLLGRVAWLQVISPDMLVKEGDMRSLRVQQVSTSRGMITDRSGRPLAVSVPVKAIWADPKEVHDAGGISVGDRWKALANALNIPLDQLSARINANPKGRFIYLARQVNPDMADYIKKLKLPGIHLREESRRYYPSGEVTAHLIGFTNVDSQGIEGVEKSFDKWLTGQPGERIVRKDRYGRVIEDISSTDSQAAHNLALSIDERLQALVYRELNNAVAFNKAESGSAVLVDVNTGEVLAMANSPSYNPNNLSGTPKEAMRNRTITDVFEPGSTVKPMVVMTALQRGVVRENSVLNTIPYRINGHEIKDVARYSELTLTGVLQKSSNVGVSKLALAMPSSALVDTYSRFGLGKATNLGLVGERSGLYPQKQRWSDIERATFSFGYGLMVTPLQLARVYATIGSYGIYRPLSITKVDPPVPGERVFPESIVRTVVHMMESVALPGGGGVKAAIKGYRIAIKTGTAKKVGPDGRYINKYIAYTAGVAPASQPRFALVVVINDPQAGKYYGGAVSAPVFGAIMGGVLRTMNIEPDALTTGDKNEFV

CCN1CCN(C(=O)NC(C(=O)N[C@H]2Cc3cccc(C(=O)O)c3OB2O)c2csc(N)n2)C(=O)C1=O (stereo partly drawn) [Example 12, (3R)-3-(2-(2-aminothiazol-4-yl)-2-(4-ethyl-2,3-dioxopiperazine-1-carboxamido)acetamido)-2-hydroxy-3,4-dihydro-2H-benzo[e][1,2]oxaborinine-8-carboxylic acid]
EC50 [1]: < 10 µM | EC50 [2]: < 10 µM
